Where “and” joins values, the source holds several entries; their conditions need not be identical. Equal entries are not always repeated. Entries after “also recorded” stand apart in the source; their conditions may differ.
Assays:
C6 cells = assay: Apoptosis by Annexin V/PI flow cytometry, C6; format: cell-based, rat
Procedure: Glioma cells (10^4) in the logarithmic growth phase were seeded in 6-well plates for 24 h. Cells were treated with DMAMCL at 240, 120, 60, 30, 15, or 0 μM. They were removed from culture plates with 0.5% trypsin containing ethylene diamine tetraacetic acid (EDTA). Apoptosis of C6 cells was measured using an Annexin V and propidium iodide (PI) apoptosis detection kit (Invitrogen, USA) and a Beckman flow cytometer (Cytomics FC500, Beckman Coulter, USA).

[1] = Toxicity of DMAMCL, oral once a day for 21 days; format: in vivo, Wistar rats; set-up: Cr: unit not given here; conditions: for ALB / ALP / ALT / AST / CHOL / CK / Cr / GLU / TG / TP / Urea: serum
Procedure: Wistar rats (150–170 g) were divided into the following 3 groups (6 rats /group): 1) vehicle control, 2) DMAMCL at 200 mg/kg, and 3) DMAMCL at 300 mg/kg. DMAMCL was administered orally once a day for 21 days. Rats were weighed on days 0, 3, 7, 11, 14, 17, and 21. Total food intake was measured as the weight of food consumed during a 24-h period on days 3, 8, 15, and 22. On the 23rd day, rats were anesthetized and sacrificed via CO2 asphyxiation. Peripheral blood was collected for hematological and serum biochemical analyses using a blood cell counter (Medonic M16, Boule medical AB, Sweden) and a Hitachi 7180 Automatic Analyzer (Japan). Tissues samples from the liver, spleen, lung, kidney, and brain were collected and embedded in paraffin for H&E staining.

intracerebral C6 glioma = assay: Survival time analysis in C6 intracerebral glioma rats; format: in vivo, Wistar rats; conditions: for Survival (# of rats) End: 63 days, n = 10; for Survival: at 63 days; for Mean survival / Median survival: observation 63 days
Procedure: C6 tumors were maintained as subcutaneous tumors in rats.
The survival time analyses were performed in C6 intracerebral glioma rats. […] Animals were monitored daily for signs of mortality and weight. Rats were sacrificed when a loss of mobility, lethargy, hemorrhaging around the eyes, or a hunched posture was observed as previously described. The observation time was terminated when all the vehicle rats died. Then the other rats were euthanized by CO2 asphyxiation.

[2] = Locomotor activity (neurological effects); format: in vivo, Wistar rats
Procedure: Locomotor activity was used to assess neurological effects of DMAMCL. Wistar rats (150–170 g) were divided into the following 3 groups (10 rats /group): 1) vehicle control, 2) DMAMCL at 100 mg/kg, and 3) DMAMCL at 300 mg/kg. DMAMCL was administered orally once a day for 21 days. Rat locomotor activities were monitored on days 1, 10, 21 and 28 using Aninal Behavioral Analysis System (AniLab Software and Instruments Co, Ltd, China). Briefly, rats were gently placed in the locomotor activity boxes equipped with infrared photobeams and individual total distance (cm) of rat running was recorded during a test period of 60 min. The test apparatus was cleaned to eliminate odors for the next test after each animal was tested.

AML models = conditions: cited from earlier work
U-87MG cells = assay: Apoptosis by Annexin V/PI flow cytometry, U-87MG; format: cell-based, human
[3] = tested on: Bcl-2 and Bax in U-87MG cells; assay: Western blotting of Bcl-2 and Bax, U-87MG cells; format: cell-based, human; conditions: 60 μM and 120μM, 24 hr
Procedure: The cellular proteins were extracted from 10^7 cultured cells after drug treatments using RIPA lysis buffer (Promega, USA). Western blotting analysis was performed to determine cellular responses targeting apoptosis-related proteins including Bcl-2 and Bax. Briefly, C6 and U-87MG cells were treated with different doses of DMAMCL for 24 hr at 37°C. Then cells were washed twice with cold phosphate buffered saline (PBS) and lysed in RIPA buffer containing 1mmol/l PMSF (Pheylmethylsulfonyl fluoride, Sigma, USA) on ice for 30 min. The total proteins of cells were obtained by centrifugation at 12000 rpm for 15 min. Next, the lysate proteins were resolved by SDS-PAGE and transferred to the Immobilon-P membranes (Millipore, Billerica, MA, USA). The membranes were blocked by 5% nonfat milk in Tris-buffered saline with 0.1% Tween 20 (TBST) and immunoblotted with the antibodies against β-actin, Bcl-2 and Bax (Cellsignaling Technology, USA) at 4°C overnight. Then membranes were incubated with HRP-conjugated secondary antibody for 1.5 hr at room temperature. The targeting antibodies were stained with enhanced chemiluminescent reagents (Millipore, Billerica, MA, USA) and visualized by ChemiScope 3600 Mini systerm (Clinx Science Instruments, China).

[4] = 24 hr post-treatment, dose-dependent
[5] = 200 mg/kg orally once a day for 21 days
[6] = 300 mg/kg orally once a day for 21 days
[7] = DMAMCL 25 mg/kg daily for 21 days
[8] = DMAMCL 50 mg/kg daily for 21 days
[9] = DMAMCL 100 mg/kg daily for 21 days

For CC1=C2CC[C@@](C)(O)[C@@H]2[C@H]2OC(=O)[C@@H](CN(C)C)[C@@H]2CC1 [DMAMCL, dimethylaminomicheliolide], the Surviving cells (C6 cells; 240 μM) was “few surviving”, the “Early and late apoptosis and necrosis” value (C6 cells; [4]) was “significantly increased early and late apoptosis and necrosis” and the GRAN% [1, 5] was 26.5 ± 3.3%. For the same compound, the HCT% [1, 5] was 35.6 ± 1.2%, the HGB [1, 5] was 145 ± 12.3 g/L and the LYM% [1, 5] was 71.3 ± 6.3%. For the same compound, the MCV [1, 5] was 55.5 ± 1.4 fL, the MONO% [1, 5] was 2.1 ± 0.3% and the PLT [1, 5] was 1195 ± 87 ×10^9/L. For the same compound, the RBC [1, 5] was 6.73±1.3 ×10^12/L, the RDW% [1, 5] was 18.5 ± 1.1% and the WBC [1, 5] was 12.5 ± 2.5 ×10^9/L. For the same compound, the GRAN% [1, 6] was 26.3 ± 4.1%, the HCT% [1, 6] was 37.7 ± 0.8% and the HGB [1, 6] was 140 ± 11.1 g/L. The LYM% [1, 6] was 69.9 ± 6.0%, the MCV [1, 6] was 53.5 ± 2.3 fL and the MONO% [1, 6] was 2.9 ± 0.9%. For the same compound, the PLT [1, 6] was 1132 ± 82 ×10^9/L, the RBC [1, 6] was 6.37 ± 1.01 ×10^12/L and the RDW% [1, 6] was 17.8 ± 0.7%. For the same compound, the WBC [1, 6] was 11.9 ± 1.3 ×10^9/L, the “Toxicity (body weight, daily food intake, histopathology, hematology, serum biochemistry)” value ([1]; 200 or 300 mg/kg orally once a day for 21 days) was “did not result in toxicity; also recorded: No significant changes were observed; also recorded: did not lead to toxicity” and the ALB [1, 5] was 32.5 ± 3.01 g/L. For the same compound, the ALP [1, 5] was 190 ± 19 U/L, the ALT [1, 5] was 51 ± 10 U/L and the AST [1, 5] was 98 ± 12 U/L. The CHOL [1, 5] was 1.39 ± 0.67 mM, the CK [1, 5] was 423 ± 35 U/L and the Cr [1, 5] was 79 ± 23. The GLU [1, 5] was 5.22 ± 2.01 mM, the TG [1, 5] was 0.81 ± 0.23 mM and the TP [1, 5] was 61.0 ± 4.6 g/L. For the same compound, the Urea [1, 5] was 6.45 ± 2.3 mM, the ALB [1, 6] was 34 ± 1.98 g/L and the ALP [1, 6] was 179 ± 30 U/L. For the same compound, the ALT [1, 6] was 49 ± 11 U/L, the AST [1, 6] was 111 ± 15 U/L and the CHOL [1, 6] was 1.42 ± 0.78 mM. For the same compound, the CK [1, 6] was 523 ± 101 U/L, the Cr [1, 6] was 80 ± 17 and the GLU [1, 6] was 5.23 ± 1.34 mM. It also gave a TG [1, 6] of 0.69 ± 0.33 mM, a TP [1, 6] of 58.3 ± 3.3 g/L and a Urea [1, 6] of 7.33 ± 1.02 mM. For the same compound, the “Median survival of deceased animals” value (intracerebral C6 glioma; [7]) was 28 days, the “Time of death End” value (intracerebral C6 glioma; [7]) was 42 days and the “Time of death Start” value (intracerebral C6 glioma; [7]) was 20 days. For the same compound, the “Survival (# of rats) End” value (intracerebral C6 glioma; [7]) was 7 # of rats, the Survival (intracerebral C6 glioma; [7]) was 70% and 70 ^** % and the Mean survival (intracerebral C6 glioma; [7]) was 53.1 ± 16.8 days. For the same compound, the Median survival (intracerebral C6 glioma; [7]) was 63 days, the “Median survival of deceased animals” value (intracerebral C6 glioma; [8]) was 25 days and the “Time of death End” value (intracerebral C6 glioma; [8]) was 25 days. The “Time of death Start” value (intracerebral C6 glioma; [8]) was 25 days, the “Survival (# of rats) End” value (intracerebral C6 glioma; [8]) was 9 # of rats and the Survival (intracerebral C6 glioma; [8]) was 90% and 90 ^*** %. For the same compound, the Mean survival (intracerebral C6 glioma; [8]) was 59.2 ± 12 days, the Median survival (intracerebral C6 glioma; [8]) was 63 days and the “Median survival of deceased animals” value (intracerebral C6 glioma; [9]) was 41 days. The “Time of death End” value (intracerebral C6 glioma; [9]) was 41 days, the “Time of death Start” value (intracerebral C6 glioma; [9]) was 41 days and the “Survival (# of rats) End” value (intracerebral C6 glioma; [9]) was 9 # of rats. For the same compound, the Survival (intracerebral C6 glioma; [9]) was 90% and 90 ^*** %, the Mean survival (intracerebral C6 glioma; [9]) was 60.8 ± 7 days and the Median survival (intracerebral C6 glioma; [9]) was 63 days. For the same compound, the “Survival longer than vehicle animals” value (intracerebral C6 glioma; DMAMCL-treated rats) was ~ 30 days, the Locomotor activity ([2]; 100mg/kg orally once a day for 21 days, observation period) was “as active as vehicle group” and the “Locomotor activity, total distance” value ([2]; 300mg/kg orally once a day, following days) was “still less active than vehicle group, but without significant statistical difference”. For the same compound, the “Locomotor activity, total distance” value ([2]; 300mg/kg orally, first day) was “decreased compared with vehicle group”, the “Locomotor activity, total distance” value ([2]; 300mg/kg, within one week of DMAMCL withdrawal) was “no significant changes were observed” and the “Therapeutic efficacy in AML models” value (AML models) was “superior therapeutic efficacy”. The Surviving cells (U-87MG cells; 240 μM) was “few surviving”, the “Early and late apoptosis and necrosis” value (U-87MG cells; [4]) was “significantly increased early and late apoptosis and necrosis” and the “Bax expression (Western blot)” value [3] was “up-regulated Bax expression”. For the same compound, the “Bcl-2 expression (Western blot)” value [3] was “down-regulated Bcl-2 expression”.

From article PMC4320118, “Micheliolide Derivative DMAMCL Inhibits Glioma Cell Growth In Vitro and In Vivo” (PLoS ONE, 2015)
